Test results reported in patent publication US12139508B2, “Steroid derivative regulators, method for preparing the same, and uses thereof” (JIANGSU HANSOH PHARMACEUTICAL GROUP CO., LTD., priority 2018, dated 2024).

What was measured:
forced-swimming mice = test: In vivo pharmacodynamic test in the forced swimming model in mice; details: ICR mice; for Mean (immobility, %): 100*floating time/240 s; for Immobility time during the latter four minutes compared with that of the model group: forced swimming
Protocol: The antidepressant effect of the compound was evaluated by the forced swimming model in mice.
Male ICR mice (25-35 g) were adapted in the test environment for 3 days before the forced swimming test.
According to the test design, the mice were randomly grouped on the day before the test according to body weight, with 12 mice in each group. Before the test, the compounds of each example were administered intragastrically according to the Tmax thereof in the brain in mice pharmacokinetic test as follows: • 1) Model group (0.5% CMC-Na-1% Tween 80 solution, p.o., 10 mL/kg); • 2) Compounds of Example 2, Example 3, Example 5, Example 6, Example 9, Examples 59-63, Examples 71-73, Example 103, Example 135, Example 137, Example 145 and Example 146 (10 mg/kg, p.o., 10 mL/kg); Example 13 and Example 74 (5 mg/kg, p.o., 5 mL/kg).
When being administered, the compounds of each example were suspended in 0.5% CMC-Na+1% Tween 80 solution to the desired concentration.
0.5-1 hour after administration, ICR mice were placed in a forced swimming device (transparent glass drum (water depth 18 cm, water temperature 25-26° C.), one mouse per tank) and forced to swim for 6 minutes. The forced swimming device recorded the floating time of the ICR mice during the entire 6 minutes, and the data of the latter four minutes were used for data analysis. The mice were taken out immediately after the swimming test, wiped dry and put back in their original cages.
Note: The criterion for determining the immobility time is that the mouse stops struggling in water and floats, and there are only slight limb movements to keep the head floating on the water.
3.4 Data Analysis Floating time percentage=100*floating time/240 s.

[1] = system: PTZ-induced epilepsy model in CD-1 mice; test: In vivo pharmacodynamic test in the PTZ-induced epilepsy model in mice; details: dose 3 mpk p.o., PTZ 120 mg/kg s.c., 30 min observation
Protocol: The PTZ-induced epilepsy model in CD-1 mice was established, and the antiepileptic effect of the compounds of Example 3, Example 60, Example 61 and Example 74 was evaluated using this model.
50 male CD-1 mice were purchased from Beijing Vital River Laboratory Animal Technology Co. Ltd. The test animals were adapted at the animal room in the third building of Shanghai ChemPartner Co., Ltd for 7 days before the test. The average body weight of the animals on the test day was 32.2±0.2 grams. Feeding environment: 5 animals/cage, room temperature 23±2° C., 12/12 hours of light and dark cycle, free acess to food and water.
4.2.1 Test Equipments • 1 ml sterile disposable syringe with needle (purchased from Zhejiang Kangdelai Medical Devices Co., Ltd.) • Pipette: Eppendorf Research Plus (100-1000 L) • Vortex mixer: Kylin-Bell Vortex 5 • Ultrasonic instrument: JL-360 ultrasonic cleaner • Balance: METTLER TOLEDO™ XS204 precision balance (note: METTLER TOLEDO™ is a kind of balance used in labs and industry) • Balance: METTLER TOLEDO™ XS6002S electronic balance (note: METTLER TOLEDO™ is a kind of balance used in labs and industry) • Plexiglass box: 25 cm length*15 cm width*15 cm height with one opaque side wall, custom made by Suzhou Fengshi Laboratory Animal Equipment Co., Ltd • 3-channel timer: Oregon/Model NO.WB-388. 4.2.2 Test Animal Grouping • 1) Vehicle/PTZ: 0.5% CMC-Na+1% Tween-80 (10 ml/kg, p.o.), administered 0.5 hr before the PTZ administration; PTZ ([…], s.c.), administered before the test; • 2) 3 mg/kg of the compounds of Examples/PTZ: the compounds of Example 3, Example 60, Example 61 and Example 74 (3 mg/kg, 10 ml/kg, p.o.), administered 0.5 hr before the PTZ administration; PTZ ([…], s.c.), administered before the test. 4.3 Experimental Procedures 4.3.1 Solvent Formulation 1) 0.5% CMC-Na+1% Tween-80 (Administration Volume: 10 mL/Kg):
4.4 Adaptation to the Environment
The mice were randomly grouped, marked and weighed; 10 mice per group. The test compound was administered orally at an administration volume of 10 mL/kg 30-60 minutes before the PTZ administration.
PTZ (120 mg/kg) was administrated subcutaneously before the test observation, and this time point was recorded as the observation start point; after the administration of PTZ, the animal was immediately placed in the observation box and observed for 30 minutes, and the followings were recorded: a) the incubation period of the first clonic seizure, b) the incubation period of the first generalized tonic seizure, c) the number of clonic seizures, d) the number of generalized tonic seizures, e) the time when the animal died.
All measurement data were expressed as Mean±SEM, and analysed with Prism 6.0 statistical software.

SMILES	Mean (immobility, %) (forced-swimming mice; dose 5 mpk p.o.) [%]	Mean (immobility, %) (forced-swimming mice; dose 10 mpk p.o.) [%]	Immobility time during the latter four minutes compared with that of the model group (forced-swimming mice)	also measured
C[C@@H]1C[C@H](C(=O)Cn2cc(C#N)cn2)[C@@]2(C)CC[C@H]3[C@@H](CC[C@@H]4C[C@](C)(O)CC[C@@H]43)[C@H]12 [Example 13, 1-(2-((3R,5R,8R,9R,10S,13S,14S,15R)-3-Hydroxy-3,13,15-trimethylhexadecahydro-1H-cyclopenta[a]phenanthren-17-yl)-2-oxoethyl)-1H-pyrazole-4-carbonitrile]	57.60			
CC[C@@H]1C[C@H](C(=O)Cn2ccc(C#N)n2)[C@@]2(C)CC[C@H]3[C@@H](CC[C@@H]4C[C@](C)(O)CC[C@@H]43)[C@H]12 [Example 137, 1-(2-((3R,5R,8R,9R,10S,13S,14S,15R,17S)-15-Ethyl-3-hydroxy-3,13-dimethylhexadecahydro-1H-cyclopenta[a]phenanthren-17-yl)-2-oxoethyl)-1H-pyrazole-3-carbonitrile]		36.92	significantly different	
C[C@@H]1C[C@H](C(=O)Cn2ccc(C#N)n2)[C@@]2(C)CC[C@H]3[C@@H](CC[C@@H]4C[C@](C)(O)CC[C@@H]43)[C@H]12 [Example 60, 1-(2-((3R,5R,8R,9R,10S,13S,14S,15R,17S)-3-Hydroxy-3,13,15-trimethylhexadecahydro-1H-cyclopenta[a]phenanthren-17-yl)-2-oxoethyl)-1H-pyrazole-3-carbonitrile]		35.30	significantly different	Incubation period of the clonic seizure, Mean ± SEM [1]: 1308.1 ± 170.1 s; Incubation period of the generalized tonic seizure, Mean [1]: 1800.0 ± 0.0 s; Mortality rate [1]: 0%; Number of clonic seizures, Mean [1]: 0.5 ± 0.2; Number of generalized tonic seizures, Mean [1]: 0.0 ± 0.0; Time when the animal died, Mean [1]: 1800.0 ± 0.0 s
C[C@@]1(O)CC[C@H]2[C@H](CC[C@@H]3[C@@H]2CC[C@@]2(C)[C@H]3[C@@H]3C[C@@H]3[C@@H]2C(=O)Cn2ccc(C#N)n2)C1 [Example 3, 1-(2-((2R,4aS,4bR,6aS,7S,7aS,8aR,8bR,8cR,10aR)-2-hydroxy-2,6a-dimethyloctadecahydrocyclopropa[4,5]cyclopenta[1,2-a]phenanthren-7-yl)-2-oxoethyl)-1H-pyrazole-3-carbonitrile]		28.50	significantly different	Incubation period of the clonic seizure, Mean ± SEM [1]: 902.9 ± 200.8 s; Incubation period of the generalized tonic seizure, Mean [1]: 1736.0 ± 63.2 s; Mortality rate [1]: 10%; Number of clonic seizures, Mean [1]: 1.3 ± 0.3; Number of generalized tonic seizures, Mean [1]: 0.1 ± 0.1; Time when the animal died, Mean [1]: 1739.8 ± 60.2 s; Mean (immobility, s) (forced-swimming mice; dose 10 mpk p.o., latter four minutes of 6 min swim): 68.39 s
C[C@@]1(O)CC[C@H]2[C@H](CC[C@@H]3[C@@H]2CC[C@]2(C)C(C(=O)Cn4cc(C#N)cn4)C[C@@H](C4CC4)[C@@H]32)C1 (stereo partly drawn) [Example 71, 1-(2-((3R,5R,8R,9R,10S,13S,14S,15S)-15-Cyclopropyl-3-hydroxy-3,13-dimethylhexadecahydro-1H-cyclopenta[a]phenanthren-17-yl)-2-oxoethyl)-1H-pyrazole-4-carbonitrile]		55.92		
C[C@@]1(O)CC[C@H]2[C@H](CC[C@@H]3[C@@H]2CC[C@@]2(C)[C@H]3[C@@H]3C[C@@H]3[C@@H]2C(=O)Cn2cc(C#N)cn2)C1 [Example 2, 1-(2-((2R,4aS,4bR,6aS,7S,7aS,8aR,8bR,8cR,10aR)-2-hydroxy-2,6a-dimethyloctadecahydrocyclopropa[4,5]cyclopenta[1,2-a]phenanthren-7-yl)-2-oxoethyl)-1H-pyrazole-4-carbonitrile]		54.26		
C[C@@]1(O)CC[C@H]2[C@H](CC[C@@H]3[C@@H]2CC[C@@]2(C)[C@H]3[C@H](C3CC3)C[C@@H]2C(=O)Cn2ccnn2)C1 [Example 145, 1-((3R,5R,8R,9R,10S,13S,14S,15S,17S)-15-Cyclopropyl-3-hydroxy-3,13-dimethylhexadecahydro-1H-cyclopenta[a]phenanthren-17-yl)-2-(1H-1,2,3-triazol-1-yl)ethan-1-one]	30.72			
C[C@@]1(O)CC[C@H]2[C@H](CC[C@@H]3[C@@H]2CC[C@@]2(C)[C@H]3[C@H](C3CC3)C[C@@H]2C(=O)Cn2ncnn2)C1 [Example 146, 1-((3R,5R,8R,9R,10S,13S,14S,15S,17S)-15-Cyclopropyl-3-hydroxy-3,13-dimethylhexadecahydro-1H-cyclopenta[a]phenanthren-17-yl)-2-(2H-tetrazol-2-yl)ethan-1-one]	33.54		significantly different	
C[C@@]1(O)CC[C@H]2[C@H](CC[C@@H]3[C@@H]2CC[C@@]2(C)[C@H]3[C@@H]3C[C@@H]3[C@@H]2C(=O)Cn2cc(C(F)(F)F)cn2)C1 [Example 5, 1-((2R,4aS,4bR,6aS,7S,7aS,8aR,8bR,8cR,10aR)-2-Hydroxy-2,6a-dimethyloctadecahydrocyclopropa[4,5]cyclopenta[1,2-a]phenanthren-7-yl)-2-(4-(trifluoromethyl)-1H-pyrazol-1-yl)ethan-1-one]		59.93		
